Like-named read-outs stand apart in the source and are kept apart here.
Legend:
[1] = for zinc concentration of the chorioidea-RPE-complex: 24 hours after 40 mg/kg ZnCl2 intraperitoneally
Experimental: Two albino (Wistar) rats and two pigmented (Long Evans) rats were injected intraperitoneally with 40 mg/kg body weight ZnCl2. After 24 hours the chorioidea-RPE-complex was isolated from retina and sclera. Respective samples from untreated animals served as controls. The samples were weight directly into leak-proof PFA vessels (Savillex) (Microbalance Sartorius MC21S) and cracked by using ultrasound homogenisation for 24 hours at 30° C. with HNO3—H2O2 (suprapur grade reagents; Merck). After careful evaporation, the remains were solved in 2% HNO3 for 5 hours at 50° C. This solution was subsequently transferred to a 10 ml volumetric flask. The final clear solution contained 10 ng rhodamin (Rh)/ml and was refilled with 2% HNO3. The detection of zinc was performed by inductively coupled plasma mass spectrometry (ICP-MS, ELAN 6000 Perkin-Elmer/Sciex) and by using Rh as internal standard and a calibration with chemical reagents having the highest purity grade.

mRNA for catalase = test: Catalase mRNA expression in the chorioidea-RPE-complex after zinc injection (real time RT-PCR); format: in vivo, rat
Experimental: After 6 and 24 hours the chorioidea-RPE-complex was isolated from the retina and sclera. The amount of catalase mRNA expression in the chorioidea-RPE-complex was quantified by real time RT-PCR with the SYBR Green I reaction system using an iCycler (Bio-Rad Laboratories, Hercules, Calif.). PCR primer (catalase: upper primer: TAGCCAGAAGAGAAACCCACAAACT (SEQ ID NO:1) and lower primer: TCCCTCGGTCGCTGAACAAGA (SEQ ID NO:2); GAPDH: upper primer: AACTTTGTGAAGCTCATTTCCTGGTAT (SEQ ID NO:3) and lower primer: CCT TGC TGG GCT GGG TGG T (SEQ ID NO:4)) were selected using the primer analysis software OLIGO®4.1 (National Biosciences, Plymoth, Minn., USA) that the primer specific melting temperature was between 58 and 60° C. […] The quantification data were calculated using the iCycler iQ System Software (Bio-Rad Laboratories, Hercules, Calif.). After subtraction of the PCR base line by the software, the linear logarithmic portion of the fluorescence was plotted versus the number of cycles to determine the cycle number (threshold cycle, CT) at which the threshold fluorescence for catalase and GAPDH as a reference was exceeded. Since the amplification effectivity of target and reference gene was approximately the same (delta CT<0.15) the comparative CT method was used for the quantification of the catalase in comparison GAPDH.

[2] = system: human amelanotic retinal pigment epithelium cells ARPE-19; test: Survival of retinal pigment epithelium cells after lethal UVA radiation; format: cell-based; details: without melanin
Experimental: 30.000 human amelanotic retinal pigment epithelium cells ARPE-19 (American Type culture Collections, Manassas, Va., USA) were cultivated in a mixture of DMEM and F12 Medium (PAA Laboratories, Linz, Austria) with 10% foetal calf serum, gentamycin and amphotericin and were incubated with 1 mg/ml melanin from squids (Sepia officinalis, Sigma). After 4 hours, the non-phagocytosed melanin was thoroughly washed away. After 24 hours the artificially pigmented cells were incubated with 100 or 200 μmol ZnCl2 for 2 hours. Three days later, the cells were irradiated using a HRL, 125 W, lamp (Radium, Germany) for 1 hour. The UVA light portion was 18 mW/cm^2 at the surface of the cell culture liquid and was measured using a RM-12 UV radiometer (Dr. Gröbel, UV Elektronik, Ettlingen, Germany). Cells without melanin and zinc treatment with and without irradiation served as controls. After 2 further days, the number of surviving cells was counted in a Thoma-chamber.
In the following table the mean values of surviving cells from 3 independent experiments are indicated. The number of surviving cells after irradiation without melanin and/or zinc treatment was statistically compared with the number of surviving cells with treatment. That is were the p-value results from. […] The number of surviving cells war increased by the factor 7.4 in comparison to untreated cells.

Human RPE cells = test: Formation of lipofuscin (auto-fluorescence) in RPE cells with tyrosinase inhibited by PTU; format: cell-based
Experimental: Human retinal pigment epithelium cells were isolated 2 hours post mortem from eyes of organ donors by incubation in 0.2% trypsin solution with 0.5 mM EDTA (if not indicated differently the reagents are from Sigma, Deisenhofen, Germany) for 30 minutes. The cells were centrifuged and cultivated in 24-well-plates (Nunc, Mainz, Germany) in Dulbeccos modified Eagle Medium with 15% foetal calf serum, 50 μg/ml gentamycin and 2.5 μg/ml amphotericin. The cells remain in primary culture (P0) for 3 weeks until confluence. Subsequent passaging was performed by trypsination of the cells in the respective time intervals. For the feeding with membranes of visual cells, cells originating from 3 different donors (passage 3, 6 and 16) were used. […]
The cells in group 1+2 were overlaid with about 2×10^6 outer segments of rods. […] After this, the cells were looked at under the fluorescence microscope (Axiovert, Zeiss, Oberkochem, Germany) with filters specific for the auto-fluorescence of the lipofuscein (excitation 360 nm, emission 540 nm, Feuerbacher Analysentechnik, Tübingen, Germany) and were photographed with a digital camera and saved using Openlab Software (Improvision, UK).

SMILES | final zinc concentration in pigmented rats relative to treated albinos (times higher) ([1]; after injection of zinc, 24 hours) | zinc concentration of the chorioidea-RPE-complex ([1]; albino (Wistar) rats) | zinc concentration of the chorioidea-RPE-complex ([1]; pigmented (Long Evans) rats) | increase of zinc concentration (factor) versus untreated ([1]; pigmented rats, 24 hours after injection of zinc) | amount of mRNA for catalase (mRNA for catalase; 24 hours after 40 mg/kg ZnCl2 i.p.) | increase of mRNA for catalase (factor) (mRNA for catalase; six hours after 40 mg/kg ZnCl2 i.p., albino and pigmented rats compared) | number of surviving cells ([2]; with irradiation (UVA 18 mW/cm^2, 1 hour), 100 μmol Zn) | number of surviving cells ([2]; with irradiation, 200 μmol Zn) | auto-fluorescence specific for lipofuscin (Human RPE cells; group 1: 1 mM PTU, fed with membranes of visual cells on 15 successive days) | auto-fluorescence specific for lipofuscin (Human RPE cells; group 3: 1 mM PTU, not fed)
[Cl-].[Cl-].[Zn+2] [zinc, ZnCl2] | 19 | 6.5 µg/g | 125 µg/g | 1.6 | again as high as without zinc injection | 12 | 33333 ± 11547 | 41666 ± 16072 |  | 
NC(=S)Nc1ccccc1 [PTU, phenylthiourea] |  |  |  |  |  |  |  |  | intensive, golden auto-fluorescence specific for lipofuscin | no auto-fluorescence

— patent publication US7488749B2, “Therapy of diseases of the eye, the inner ear and the central nervous system” (Cevec Pharmaceuticals GmbH, priority 2002, dated 2009)
